We go through 5 compounds from publication PMC10175918 (Communications Biology, 2023).

Common to all, as to experiment: TGFα-shedding assay-based GPCR screening with chimeric Gα subunit proteins
Holding throughout (format): cell-based

The target in experiment [1] is T1, 348 GPCRs (Homo sapiens, UniProt O15354).
T1 construct: expressed in transfected cells; host or cells: HEK293A
T1 sequence (O15354 27-613): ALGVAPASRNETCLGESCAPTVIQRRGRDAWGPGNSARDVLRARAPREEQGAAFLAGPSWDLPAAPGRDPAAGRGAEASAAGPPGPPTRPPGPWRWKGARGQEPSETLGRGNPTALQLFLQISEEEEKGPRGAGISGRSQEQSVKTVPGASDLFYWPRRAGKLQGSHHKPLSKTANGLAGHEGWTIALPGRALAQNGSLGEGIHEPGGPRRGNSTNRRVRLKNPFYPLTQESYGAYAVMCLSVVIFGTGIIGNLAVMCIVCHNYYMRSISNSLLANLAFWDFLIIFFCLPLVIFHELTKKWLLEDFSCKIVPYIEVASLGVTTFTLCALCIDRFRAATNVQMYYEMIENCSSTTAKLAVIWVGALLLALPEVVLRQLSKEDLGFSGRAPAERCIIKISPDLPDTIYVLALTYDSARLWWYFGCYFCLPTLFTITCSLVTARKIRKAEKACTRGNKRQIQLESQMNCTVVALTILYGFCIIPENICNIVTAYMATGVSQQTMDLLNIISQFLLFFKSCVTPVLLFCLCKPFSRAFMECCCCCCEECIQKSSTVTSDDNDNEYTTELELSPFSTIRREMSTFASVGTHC
As to conditions: 10µM, Favipiravir 100μM.

Experiment [2] deals with T2, 348 GPCRs (Homo sapiens, UniProt Q14833).
T2 construct: expressed in transfected cells; host or cells: HEK293A
As to conditions: 10µM, Favipiravir 100μM.

Experiment [3] addresses T3, 348 GPCRs (Homo sapiens, UniProt P32241).
T3 construct: expressed in transfected cells; host or cells: HEK293A
T3 sequence (P32241 31-457): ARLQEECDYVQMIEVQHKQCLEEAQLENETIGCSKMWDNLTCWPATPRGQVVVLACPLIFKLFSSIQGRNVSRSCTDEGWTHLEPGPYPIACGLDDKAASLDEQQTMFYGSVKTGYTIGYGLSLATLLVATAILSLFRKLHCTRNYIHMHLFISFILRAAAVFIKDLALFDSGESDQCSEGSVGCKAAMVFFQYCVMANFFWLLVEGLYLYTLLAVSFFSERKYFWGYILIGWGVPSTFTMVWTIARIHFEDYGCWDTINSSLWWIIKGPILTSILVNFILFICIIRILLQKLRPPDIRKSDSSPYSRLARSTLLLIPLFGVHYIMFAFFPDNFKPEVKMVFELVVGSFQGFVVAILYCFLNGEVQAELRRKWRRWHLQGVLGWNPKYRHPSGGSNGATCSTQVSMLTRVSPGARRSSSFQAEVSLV

Experiment [4] has as its target T4, 348 GPCRs (Homo sapiens, UniProt P08173).
T4 construct: expressed in transfected cells; host or cells: HEK293A
T4 sequence (P08173 1-479): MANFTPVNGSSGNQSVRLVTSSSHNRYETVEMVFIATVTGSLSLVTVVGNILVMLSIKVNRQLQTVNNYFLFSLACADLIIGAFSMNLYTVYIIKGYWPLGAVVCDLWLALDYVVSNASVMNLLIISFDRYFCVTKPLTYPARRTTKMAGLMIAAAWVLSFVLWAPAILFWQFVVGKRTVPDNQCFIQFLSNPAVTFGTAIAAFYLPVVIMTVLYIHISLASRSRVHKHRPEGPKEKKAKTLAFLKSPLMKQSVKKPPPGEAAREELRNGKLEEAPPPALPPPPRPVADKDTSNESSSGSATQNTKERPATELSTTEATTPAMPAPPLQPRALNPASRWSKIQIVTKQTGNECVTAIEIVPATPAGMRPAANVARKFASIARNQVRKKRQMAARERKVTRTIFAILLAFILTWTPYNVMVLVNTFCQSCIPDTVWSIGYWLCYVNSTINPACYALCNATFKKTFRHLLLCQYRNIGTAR

The target of experiment [5] is T5, 348 GPCRs (Homo sapiens, UniProt Q96P65).
T5 construct: expressed in transfected cells; host or cells: HEK293A
T5 sequence (Q96P65 1-431): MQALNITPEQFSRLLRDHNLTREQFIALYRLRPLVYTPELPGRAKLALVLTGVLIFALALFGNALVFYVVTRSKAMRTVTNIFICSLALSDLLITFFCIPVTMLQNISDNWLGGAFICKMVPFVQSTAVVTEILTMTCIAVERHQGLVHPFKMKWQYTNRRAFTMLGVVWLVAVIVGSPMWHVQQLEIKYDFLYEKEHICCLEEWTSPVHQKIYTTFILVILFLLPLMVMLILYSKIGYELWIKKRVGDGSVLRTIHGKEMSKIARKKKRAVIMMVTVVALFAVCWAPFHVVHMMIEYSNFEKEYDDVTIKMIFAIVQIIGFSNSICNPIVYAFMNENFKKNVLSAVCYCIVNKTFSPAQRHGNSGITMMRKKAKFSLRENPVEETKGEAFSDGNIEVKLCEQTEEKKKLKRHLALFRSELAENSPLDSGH
As to conditions: 10µM, Favipiravir 100μM.

Experiment [6] has as its target T6, 348 GPCRs (Homo sapiens, UniProt P21731).
T6 construct: expressed in transfected cells; host or cells: HEK293A
T6 sequence (P21731 1-343): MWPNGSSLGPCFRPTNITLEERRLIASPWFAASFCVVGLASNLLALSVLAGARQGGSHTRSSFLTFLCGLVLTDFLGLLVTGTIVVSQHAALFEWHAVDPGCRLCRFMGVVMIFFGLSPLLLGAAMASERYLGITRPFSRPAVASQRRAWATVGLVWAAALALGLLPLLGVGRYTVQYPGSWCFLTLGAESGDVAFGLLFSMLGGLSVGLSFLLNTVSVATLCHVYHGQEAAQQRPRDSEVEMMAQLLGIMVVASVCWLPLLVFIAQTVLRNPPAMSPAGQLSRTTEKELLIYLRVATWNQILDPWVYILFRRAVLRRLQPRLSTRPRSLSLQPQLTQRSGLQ
The following applies: 10µM, Favipiravir 100μM.

Where [7] appears, read: GPR37 (G protein-coupled receptor 37), read-out: % GPCR activation compared to TPA.
Setting [8] is: GRM4 (glutamate receptor, metabotropic 4), read-out: % GPCR activation compared to TPA.
Setting [9] is: GPCR VIPR1 (vasoactive intestinal peptide receptor 1), read-out: % GPCR activation compared to TPA.
Setting [10] is: GPCR M4 (Muscarinic acetylcholine receptor M4), read-out: % GPCR activation compared to TPA.
Where [11] appears, read: QRFP (pyroglutamylated RFamide peptide receptor), read-out: % GPCR activation compared to TPA.
Where [12] appears, read: TBXA2R (thromboxane A2 receptor), read-out: % GPCR activation compared to TPA.
[13] abbreviates: read-out: % GPCR activation compared to TPA, GPR37 (G protein-coupled receptor 37).
[14] abbreviates: read-out: % GPCR activation compared to TPA, GRM4 (glutamate receptor, metabotropic 4).
Setting [15] is: read-out: % GPCR activation compared to TPA, GPCR VIPR1 (vasoactive intestinal peptide receptor 1).
The mark [16] stands for this setting: read-out: % GPCR activation compared to TPA, GPCR M4 (Muscarinic acetylcholine receptor M4).
Setting [17] is: read-out: % GPCR activation compared to TPA, QRFP (pyroglutamylated RFamide peptide receptor).
The mark [18] stands for this setting: read-out: % GPCR activation compared to TPA, TBXA2R (thromboxane A2 receptor).

Molecules are shown by their SMILES. Where two headings read alike, the source gives them in different places.

T2 sequence (Q14833 33-912): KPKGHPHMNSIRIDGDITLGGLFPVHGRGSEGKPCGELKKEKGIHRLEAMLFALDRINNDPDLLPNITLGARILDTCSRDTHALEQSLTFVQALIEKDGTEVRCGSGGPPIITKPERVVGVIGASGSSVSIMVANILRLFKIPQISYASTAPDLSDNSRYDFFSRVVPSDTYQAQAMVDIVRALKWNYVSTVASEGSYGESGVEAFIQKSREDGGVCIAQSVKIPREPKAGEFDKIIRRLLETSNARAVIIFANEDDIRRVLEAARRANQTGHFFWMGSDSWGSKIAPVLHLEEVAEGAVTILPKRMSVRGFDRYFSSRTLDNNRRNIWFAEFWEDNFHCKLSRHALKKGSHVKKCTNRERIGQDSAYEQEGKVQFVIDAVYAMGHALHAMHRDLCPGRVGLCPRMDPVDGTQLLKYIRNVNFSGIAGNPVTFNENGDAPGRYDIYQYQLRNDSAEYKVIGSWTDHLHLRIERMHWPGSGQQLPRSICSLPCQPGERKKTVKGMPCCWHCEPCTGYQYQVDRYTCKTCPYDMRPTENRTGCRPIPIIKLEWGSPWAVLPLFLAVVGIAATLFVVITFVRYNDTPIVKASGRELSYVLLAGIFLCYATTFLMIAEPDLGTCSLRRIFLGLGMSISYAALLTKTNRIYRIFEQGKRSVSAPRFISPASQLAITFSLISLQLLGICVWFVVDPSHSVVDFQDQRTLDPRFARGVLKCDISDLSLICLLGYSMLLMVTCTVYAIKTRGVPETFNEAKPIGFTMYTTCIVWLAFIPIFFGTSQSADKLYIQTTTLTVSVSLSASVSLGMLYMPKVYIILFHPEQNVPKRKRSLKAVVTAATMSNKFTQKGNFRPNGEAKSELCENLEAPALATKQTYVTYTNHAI

Turning to `CC(C)C(=O)OC[C@H]1O[C@@H](n2ccc(NO)nc2=O)[C@H](O)[C@@H]1O` [molnupiravir], the activation at 10 µM was -2.05% on 348 GPCRs [1] (setting [7]); -0.478% at 348 GPCRs [2] (setting [8]); -0.522% on 348 GPCRs [3] (setting [9]); -1.11% at 348 GPCRs [4] (setting [10]); -1.16% at 348 GPCRs [6] (setting [12]). On 348 GPCRs [5] (setting [11]), the activation at 100 µM is -2.8%.

As to `CC(C)OC(=O)[C@H](C)N[P@](=O)(OC[C@H]1O[C@@H](n2ccc(=O)[nH]c2=O)[C@](C)(F)[C@@H]1O)Oc1ccccc1` [sofosbuvir], the activation at 10 µM was -2.61% at 348 GPCRs [1] (setting [13]); 2.56% on 348 GPCRs [2] (setting [14]); 0.0833% at 348 GPCRs [3] (setting [15]); -1.57% on 348 GPCRs [4] (setting [16]); 0.249% on 348 GPCRs [6] (setting [18]). Moreover, at 348 GPCRs [5] (setting [17]), the activation at 100 µM was -1.05%.

Consider `N#C[C@@]1(c2ccc3c(N)ncnn23)O[C@H](CO)[C@@H](O)[C@H]1O` [GS441524], for which the activation at 10 µM on 348 GPCRs [1] (setting [7]) is -2.53%; on 348 GPCRs [2] (setting [8]), 1.52%; on 348 GPCRs [3] (setting [9]), -2.1%; at 348 GPCRs [4] (setting [10]), -4.09%; on 348 GPCRs [6] (setting [12]) it was -0.528%. The activation at 100 µM at 348 GPCRs [5] (setting [11]) was -0.975%.

Consider `NC(=O)c1nc(F)cnc1O` [favipiravir, 6-fluoro-3-hydroxy-2-pyrazinecarboxamide], for which the activation at 10 µM is -0.655% at 348 GPCRs [1] (setting [7]), 1.65% on 348 GPCRs [2] (setting [8]) and -0.974% at 348 GPCRs [6] (setting [12]). Also, the activation at 100 µM at 348 GPCRs [3] (GPCR VIPR1 (vasoactive intestinal peptide receptor 1), 100μM, read-out: % GPCR activation compared to TPA) was -0.983%; on 348 GPCRs [4] (GPCR M4 (Muscarinic acetylcholine receptor M4), 100μM, read-out: % GPCR activation compared to TPA), -6.29%; on 348 GPCRs [5] (setting [11]), -2.34%.

In the case of `CCC(CC)COC(=O)[C@H](C)N[P@](=O)(OC[C@H]1O[C@@](C#N)(c2ccc3c(N)ncnn23)[C@H](O)[C@@H]1O)Oc1ccccc1` [remdesivir], the activation at 10 µM was -0.881% on 348 GPCRs [1] (setting [13]); -0.0103% at 348 GPCRs [2] (setting [14]); -1.85% at 348 GPCRs [3] (setting [15]); -2.98% on 348 GPCRs [4] (setting [16]); -0.881% on 348 GPCRs [6] (setting [18]). For the same compound, the activation at 100 µM at 348 GPCRs [5] (setting [17]) was -1.33%.
